Results on one molecule are retold here after patent US12427134B2, “Methods of reducing the risk of cardiovascular events in a subject with atrial fibrillation and/or atrial flutter” (priority 2019, dated 2025).

In the data set the test system is hypertriglyceridemic patients with cardiovascular disease or at high risk for cardiovascular disease. The note with it: human, in vivo.

Molecules are shown by their SMILES. Like-named read-outs stand apart in the source and are kept apart here.

Method: Specification of Variables and Procedures: Safety assessments included adverse events, clinical laboratory measurements (chemistry, hematology), 12-lead ECGs, vital signs (systolic and diastolic blood pressure, heart rate, respiratory rate, and body temperature), weight, waist circumference, and physical examinations as per Study Procedures in Table 1. […] All laboratory test results were evaluated by the investigator as to their clinical significance. Any observations at physical examinations or laboratory values considered by the investigator to be clinically significant were considered an adverse event.
An adverse event can therefore be any unfavorable and/or unintended sign (including an abnormal laboratory finding), symptom, or disease temporally associated with the use of an investigational medication product, whether or not related to the investigational medication product. All adverse events, including observed or volunteered problems, complaints, or symptoms, were recorded on the appropriate CRF. Each adverse event was evaluated for duration, intensity, and causal relationship with the study medication or other factors.
Adverse events, which included clinical laboratory test variables, were monitored from the time of informed consent until study participation was complete. Patients were instructed to report any adverse event that they experienced to the investigator. Beginning with Visit 2, investigators assessed for adverse events at each visit and recorded the event on the appropriate adverse event CRF.
Causality Assessment: The relationship of an adverse event to the administration of the study drug was assessed according to the following definitions: • No (unrelated, not related, no relation)—The time course between the administration of study drug and the occurrence or worsening of the adverse event rules out a causal relationship and another cause (concomitant drugs, therapies, complications, etc.) is suspected. • Yes (related, probably related, possibly related)—The time course between the administration of study drug and the occurrence or worsening of the adverse event is consistent with a causal relationship and no other cause (concomitant drugs, therapies, complications, etc.) can be identified.
Serious Adverse Events: A serious adverse event (SAE) is defined as an adverse event that meets any of the following criteria: • Results in death; • Is life-threatening—The term “life-threatening” in the definition of “serious” refers to an event in which the patient was at risk of death at the time of the event. […] Important medical events that may not result in death, be life threatening, or require hospitalization were considered an SAE when, based upon appropriate medical judgment, they may have jeopardized the patient and may have required medical or surgical intervention to prevent one of the outcomes listed above.
Analysis of Safety: All analyses of safety were conducted on the safety population, which was defined as all randomized patients. The safety assessment was based on the frequency of adverse events, physical exams, vital signs and safety laboratory tests. AEs with new onset during the study between the initiation of study drug and 30 days after the last dose of study drug for each patient was considered treatment-emergent (TEAEs). This included any AE with onset prior to initiation of study drug and increased severity after the treatment initiation.
This included overall incidence rates (regardless of severity and relationship to study drug), and incidence rates for moderate or severe adverse events. A summary of SAEs and adverse events leading to early discontinuation (for ≥30 days) were presented through data listings. Patients who restarted study drug were included in the summary of AEs leading to discontinuation.

Turning to `CC/C=C\C/C=C\C/C=C\C/C=C\C/C=C\CCCC(=O)OCC` [AMR101, eicosapentaenoic acid ethyl ester], the “SAE class infections and infestations, patients” value amounted to 8.1%; the “Serious adverse event - Infections and infestations (SOC), % patients” value is “(8.1) %”; the “Serious adverse event - Infections and infestations (SOC), n patients” value stood at 332; the “Serious adverse event - Sepsis, % patients” value is recorded as “(0.6) %”. Further, the “Serious adverse event - Sepsis, n patients” value worked out at 25; the “Serious adverse event - Urinary tract infection, % patients” value was “(0.6) %”; the “Serious adverse event - Urinary tract infection, n patients” value stood at 25; the “Severe TEAE class infections and infestations, patients” value turned out to be 5.1%. Further, the “Severe TEAE: Infections and infestations, %” value is recorded as “(5.1) %”; the “Severe TEAE: Sepsis, %” value is reported as “(0.5) %”; the “Severe TEAE: Urinary tract infection, %” value is “(0.3) %”; the “TEAE class infections and infestations, patients” value turned out to be 44.6%. In addition, the “TEAE: Upper respiratory tract infection, %” value is “(7.6) %” and the “TEAE: Urinary tract infection, %” value is given as “(6.2) %”. Also, the “TEAE: Infections and infestations, %” value (female) was “(48.9) %”. Moreover, the “TEAE: Infections and infestations, %” value (male) was “(42.8) %”.
